# From ChEMBL document CHEMBL5247620, “Lupane derivatives containing various aryl substituents in the position 3 have selective cytostatic effect in leukemic cancer cells including resistant phenotypes” (Eur J Med Chem, 2022)
# The source made the active and inactive calls. The rule behind the calls is not given here.
# Tests used:
# CCRF-CEM [1] = experiment: Induction of apoptosis in human CCRF-CEM cells assessed as early apoptotic cells at 1 times IC50 concentration incubated for 24 hrs by annexin V FITC/propidium iodide staining based flow cytometry (reference value: 2.6 %); assay type: functional
# [2] = Efflux ratio of apparent permeability from basolateral to apical side over apical to basolateral side in human Caco-2 cells incubated for 2 hr by high-throughput spectrometric analysis; assay type: ADME, cell-based
# CCRF-CEM [3] = experiment: Induction of apoptosis in human CCRF-CEM cells assessed as decrease in Rb phosphorylation level at Ser807/811 at 5 times IC50 concentration incubated for 24 hrs by western blot assay; assay type: functional, cell-based
# CEM-DNR = experiment: Cytotoxicity against human CEM-DNR cells assessed as inhibition of cell growth incubated for 72 hrs by MTS assay; assay type: functional, cell-based
# CCRF-CEM [4] = experiment: Induction of cell cycle arrest in human CCRF-CEM cells assessed as accumulation of cells at G1 phase at 5 times IC50 concentration incubated for 24 to 72 hrs by propidium iodide staining based flow cytometry; assay type: functional; details: time 24-72 hrs
# CCRF-CEM [5] = experiment: Induction of apoptosis in human CCRF-CEM cells assessed as decrease in cell number at 5 times IC50 concentration incubated for 24 to 74 hrs by annexin V FITC/propidium iodide staining based flow cytometry; assay type: functional; details: time 24-74 hrs
# [6] = Plasma stability in human assessed as compound remaining at 2 uM measured after 30 mins by RF-MS analysis; assay type: ADME, cell-free; details: read-out: Stability
# [7] = Microsomal stability in human liver microsome as compound remaining at 2 uM measured after 15 mins in presence of NADPH by RF-MS analysis; assay type: ADME; details: liver microsomes, read-out: Stability
# [8] = Plasma stability in human assessed as compound remaining at 2 uM measured after 60 mins by RF-MS analysis; assay type: ADME, cell-free; details: read-out: Stability
# CCRF-CEM [9] = experiment: Induction of cell cycle arrest in human CCRF-CEM cells assessed as decrease of cell population at S phase at 1 times IC50 concentration incubated for 24 to 72 hrs by propidium iodide staining based flow cytometry; assay type: functional; details: time 24-72 hrs
# CCRF-CEM [10] = experiment: Induction of apoptosis in human CCRF-CEM cells assessed as late apoptotic cells at 5 times IC50 concentration incubated for 24 hrs by annexin V FITC/propidium iodide staining based flow cytometry (reference value: 1.4 %); assay type: functional
# U2OS = experiment: Cytotoxicity against human U2OS cells assessed as inhibition of cell growth incubated for 72 hrs by MTS assay; assay type: functional, cell-based
# [11] = Cytotoxicity against human K562-Tax cells assessed as inhibition of cell growth incubated for 72 hrs by MTS assay; assay type: functional, cell-based
# [12] = Chemical stability of the compound in PBS buffer assessed as compound remaining at pH 7.4 at 2 uM measured after 15 mins by RF-MS analysis; assay type: physicochemical; details: read-out: Stability
# [13] = Chemical stability of the compound in PBS buffer assessed as compound remaining at pH 7.4 at 2 uM measured after 120 mins by RF-MS analysis; assay type: physicochemical; details: read-out: Stability
# [14] = Apparent permeability across apical to basolateral side in dog MDCK-MDR1 cells incubated for 1 hr by high-throughput spectrometric analysis; assay type: ADME, cell-based, Canis lupus familiaris
# CCRF-CEM [15] = experiment: Induction of apoptosis in human CCRF-CEM cells assessed as decrease in cyclin A protein expression level at 5 times IC50 concentration incubated for 24 hrs by western blot assay; assay type: functional, cell-based
# CCRF-CEM [16] = experiment: Induction of apoptosis in human CCRF-CEM cells assessed as decrease in Bcl-2 protein expression level at 5 times IC50 concentration incubated for 24 hrs by western blot assay; assay type: functional, cell-based
# [17] = Cytotoxicity against human p53HCT116 cells assessed as inhibition of cell growth incubated for 72 hrs by MTS assay; assay type: functional, cell-based; details: p53HCT116, 72 h
# [18] = Plasma protein binding in human assessed as fraction bound at 10 uM incubated for 4 hrs by rapid equilibrium dialysis based RF-MS analysis; assay type: ADME, cell-free; details: read-out: PPB (converted)
# [19] = Microsomal stability in human liver microsome as compound remaining at 2 uM measured after 60 mins in presence of NADPH by RF-MS analysis; assay type: ADME; details: liver microsomes, read-out: Stability
# [20] = Cytotoxicity against human MRC5 cells assessed as inhibition of cell growth incubated for 72 hrs by MTS assay; assay type: toxicity, cell-based
# CCRF-CEM [21] = experiment: Induction of apoptosis in human CCRF-CEM cells assessed as decrease in cell number at 1 times IC50 concentration incubated for 24 to 74 hrs by annexin V FITC/propidium iodide staining based flow cytometry; assay type: functional; details: time 24-74 hrs
# CCRF-CEM [22] = experiment: Induction of apoptosis in human CCRF-CEM cells assessed as viable cells at 1 times IC50 concentration incubated for 24 hrs by annexin V FITC/propidium iodide staining based flow cytometry (reference value: 96 %); assay type: functional
# CCRF-CEM [23] = experiment: Cytotoxicity against human CCRF-CEM cells assessed as inhibition of cell growth incubated for 72 hrs by MTS assay; assay type: functional, cell-based
# CCRF-CEM [24] = experiment: Induction of apoptosis in human CCRF-CEM cells assessed as decrease in Rb phosphorylation level at Ser780 at 5 times IC50 concentration incubated for 24 hrs by western blot assay; assay type: functional, cell-based
# CCRF-CEM [25] = experiment: Induction of apoptosis in human CCRF-CEM cells assessed as late apoptotic cells at 1 times IC50 concentration incubated for 24 hrs by annexin V FITC/propidium iodide staining based flow cytometry (reference value: 1.4 %); assay type: functional
# CCRF-CEM [26] = experiment: Induction of apoptosis in human CCRF-CEM cells assessed as early apoptotic cells at 5 times IC50 concentration incubated for 24 hrs by annexin V FITC/propidium iodide staining based flow cytometry (reference value: 2.6 %); assay type: functional
# [27] = Plasma stability in human assessed as compound remaining at 2 uM measured after 120 mins by RF-MS analysis; assay type: ADME, cell-free; details: read-out: Stability
# [28] = Chemical stability of the compound in PBS buffer assessed as compound remaining at pH 7.4 at 2 uM measured after 30 mins by RF-MS analysis; assay type: physicochemical; details: read-out: Stability
# K562 = experiment: Cytotoxicity against human K562 cells assessed as inhibition of cell growth incubated for 72 hrs by MTS assay; assay type: functional, cell-based; details: K562, 72 h
# [29] = Efflux ratio of apparent permeability from basolateral to apical side over apical to basolateral side in dog MDCK-MDR1 cells incubated for 1 hr by high-throughput spectrometric analysis; assay type: ADME, cell-based, Canis lupus familiaris
# CCRF-CEM [30] = experiment: Induction of apoptosis in human CCRF-CEM cells assessed as viable cells at 5 times IC50 concentration incubated for 24 hrs by annexin V FITC/propidium iodide staining based flow cytometry (reference value: 96 %); assay type: functional
# [31] = Plasma stability in human assessed as compound remaining at 2 uM measured after 15 mins by RF-MS analysis; assay type: ADME, cell-free; details: read-out: Stability
# [32] = Apparent permeability across apical to basolateral side in human Caco-2 cells incubated for 2 hr by high-throughput spectrometric analysis; assay type: ADME, cell-based
# [33] = Cytotoxicity against human BJ cells assessed as inhibition of cell growth incubated for 72 hrs by MTS assay; assay type: toxicity, cell-based
# [34] = Apparent permeability across apical to basolateral side in human Caco-2 cells assessed as drug recovery incubated for 2 hr by high-throughput spectrometric analysis; assay type: ADME, cell-based; details: read-out: Drug recovery
# CCRF-CEM [35] = experiment: Induction of cell cycle arrest in human CCRF-CEM cells assessed as decrease of cell population at S phase at 5 times IC50 concentration incubated for 24 to 72 hrs by propidium iodide staining based flow cytometry; assay type: functional; details: time 24-72 hrs
# [36] = Apparent permeability across apical to basolateral side in dog MDCK-MDR1 cells assessed as drug recovery incubated for 1 hr by high-throughput spectrometric analysis; assay type: ADME, cell-based, Canis lupus familiaris; details: read-out: Drug recovery
# HCT-116 = experiment: Cytotoxicity against human HCT-116 cells assessed as inhibition of cell growth incubated for 72 hrs by MTS assay; assay type: functional, cell-based; details: HCT-116, 72 h
# [37] = Microsomal stability in human liver microsome as compound remaining at 2 uM measured after 30 mins in presence of NADPH by RF-MS analysis; assay type: ADME; details: liver microsomes, read-out: Stability
# CCRF-CEM [38] = experiment: Induction of apoptosis in human CCRF-CEM cells assessed as effect on total Rb protein level at 1 times IC50 concentration incubated for 24 hrs by western blot assay; assay type: functional, cell-based
# A549 = experiment: Cytotoxicity against human A549 cells assessed as inhibition of cell growth incubated for 72 hrs by MTS assay; assay type: functional, cell-based; details: A549, 72 h
# [39] = Chemical stability of the compound in PBS buffer assessed as compound remaining at pH 7.4 at 2 uM measured after 60 mins by RF-MS analysis; assay type: physicochemical; details: read-out: Stability
# CCRF-CEM [40] = experiment: Induction of cell cycle arrest in human CCRF-CEM cells assessed as accumulation of cells at G1 phase at 1 times IC50 concentration incubated for 24 to 72 hrs by propidium iodide staining based flow cytometry; assay type: functional; details: time 24-72 hrs
# CCRF-CEM [41] = experiment: Induction of apoptosis in human CCRF-CEM cells assessed as effect on total Rb protein level at 5 times IC50 concentration incubated for 24 hrs by western blot assay; assay type: functional, cell-based
structure (smiles),measurement,setting,value
C=C(C)[C@@H]1CC[C@]2(C(=O)O)CC[C@]3(C)[C@H](CC[C@@H]4[C@@]5(C)CC=C(c6cccc(N)c6)C(C)(C)[C@@H]5CC[C@]43C)[C@@H]12,Activity,CCRF-CEM [1],3.3%
same,efflux ratio at 2 h,[2],3.92
same,Activity,CCRF-CEM [3],Active
same,IC50,CEM-DNR,8.9 µM
same,Activity,CCRF-CEM [4],Active
same,Activity,CCRF-CEM [5],Active
same,"remaining at 0.5 h, 2 µM",[6],88.7%
same,"remaining at 0.25 h, 2 µM",[7],108%
same,"remaining at 1 h, 2 µM",[8],82.5%
same,Activity,CCRF-CEM [9],Active
same,Activity,CCRF-CEM [10],1.8%
same,IC50,U2OS,31 µM
same,IC50,[11],9 µM
same,"remaining at 0.25 h, 2 µM",[12],95.5%
same,"remaining at 2 h, 2 µM",[13],96.7%
same,Papp A→B at 1 h,[14],1.73 ×10⁻⁶ cm/s
same,Activity,CCRF-CEM [15],Active
same,Activity,CCRF-CEM [16],Active
same,IC50,[17],10 µM
same,"fraction unbound at 4 h, 10 µM",[18],0.502
same,"remaining at 1 h, 2 µM",[19],94.8%
same,IC50 at 72 h,[20],47 µM
same,Activity,CCRF-CEM [21],Active
same,Activity,CCRF-CEM [22],95.2%
same,IC50,CCRF-CEM [23],1800 nM
same,Activity,CCRF-CEM [24],Active
same,Activity,CCRF-CEM [25],1.5%
same,Activity,CCRF-CEM [26],3.4%
same,"remaining at 2 h, 2 µM",[27],71.5%
same,"remaining at 0.5 h, 2 µM",[28],91.7%
same,IC50,K562,36 µM
same,efflux ratio at 1 h,[29],7.23
same,Activity,CCRF-CEM [30],94.8%
same,"remaining at 0.25 h, 2 µM",[31],97.7%
same,Papp A→B at 2 h,[32],0.053 ×10⁻⁶ cm/s
same,IC50 at 72 h,[33],50 µM
same,recovery at 2 h,[34],106%
same,Activity,CCRF-CEM [35],Active
same,recovery at 1 h,[36],31.5%
same,IC50,HCT-116,12 µM
same,"remaining at 0.5 h, 2 µM",[37],107%
same,Activity,CCRF-CEM [38],inactive
same,IC50,A549,9.7 µM
same,"remaining at 1 h, 2 µM",[39],91.8%
same,Activity,CCRF-CEM [40],Active
same,Activity,CCRF-CEM [41],inactive
C=C(C)[C@@H]1CC[C@]2(C(=O)O)CC[C@]3(C)[C@H](CC[C@@H]4[C@@]5(C)CC=C(c6ccc(O)cc6)C(C)(C)[C@@H]5CC[C@]43C)[C@@H]12,Activity,CCRF-CEM [1],3.4%
same,efflux ratio at 2 h,[2],1.47
same,IC50,CEM-DNR,3.3 µM
same,Activity,CCRF-CEM [4],Active
same,Activity,CCRF-CEM [5],Active
same,"remaining at 0.5 h, 2 µM",[6],88.1%
same,"remaining at 0.25 h, 2 µM",[7],96.7%
same,"remaining at 1 h, 2 µM",[8],86.8%
same,Activity,CCRF-CEM [9],Active
same,Activity,CCRF-CEM [10],1.9%
same,IC50,U2OS,11 µM
same,IC50,[11],3.3 µM
same,"remaining at 0.25 h, 2 µM",[12],98.9%
same,"remaining at 2 h, 2 µM",[13],89.6%
same,Papp A→B at 1 h,[14],4.27 ×10⁻⁶ cm/s
same,IC50,[17],6.4 µM
same,"fraction unbound at 4 h, 10 µM",[18],0.242
same,"remaining at 1 h, 2 µM",[19],92.9%
same,IC50 at 72 h,[20],27 µM
same,Activity,CCRF-CEM [21],Active
same,Activity,CCRF-CEM [22],95%
same,IC50,CCRF-CEM [23],690 nM
same,Activity,CCRF-CEM [25],1.6%
same,Activity,CCRF-CEM [26],3.9%
same,"remaining at 2 h, 2 µM",[27],74.4%
same,"remaining at 0.5 h, 2 µM",[28],98.7%
same,IC50,K562,6.2 µM
same,efflux ratio at 1 h,[29],2.05
same,Activity,CCRF-CEM [30],94.2%
same,"remaining at 0.25 h, 2 µM",[31],93.9%
same,Papp A→B at 2 h,[32],1.69 ×10⁻⁶ cm/s
same,IC50 at 72 h,[33],31 µM
same,recovery at 2 h,[34],65.2%
same,Activity,CCRF-CEM [35],Active
same,recovery at 1 h,[36],55.9%
same,IC50,HCT-116,7.4 µM
same,"remaining at 0.5 h, 2 µM",[37],93.2%
same,Activity,CCRF-CEM [38],inactive
same,IC50,A549,6.2 µM
same,"remaining at 1 h, 2 µM",[39],94%
same,Activity,CCRF-CEM [40],Active
same,Activity,CCRF-CEM [41],inactive
